Data reported in the supplement of paper PMC10307832.

Tests used:
Test in all cases: relative viability (nuclei count vs DMSO), 5 days (fraction); higher = more cells survive
Venetoclax + OSI-027 = compound: CC1(C)CCC(CN2CCN(c3ccc(C(=O)NS(=O)(=O)c4ccc(NCC5CCOCC5)c([N+](=O)[O-])c4)c(Oc4cnc5[nH]ccc5c4)c3)CC2)=C(c2ccc(Cl)cc2)C1 [Venetoclax] + COc1cccc2cc(-c3nc([C@H]4CC[C@H](C(=O)O)CC4)n4ncnc(N)c34)[nH]c12 [OSI-027] (partner 0.5 µM)
Procedure, shortened: (§1)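 Values are medians from duplicate plates. Each reflects relative viability, defined as the nuclei count of treated wells over that of vehicle wells. Lung cancer cell lines in 1536-well plates were pin-tool dosed one day after seeding with one drug alone or with a fixed anchor-drug dose plus five library-drug doses (not always all listed) in √10 steps, then fixed, stained and imaged at 4× after 5 days.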

Selumetinib + Lapatinib = compound: Cn1cnc2c(F)c(Nc3ccc(Br)cc3Cl)c(C(=O)NOCCO)cc21 [Selumetinib] + CS(=O)(=O)CCNCc1ccc(-c2ccc3ncnc(Nc4ccc(OCc5cccc(F)c5)c(Cl)c4)c3c2)o1 [Lapatinib] (partner 2 µM)
Procedure, shortened: as §1

Selumetinib + Luminespib = compound: Cn1cnc2c(F)c(Nc3ccc(Br)cc3Cl)c(C(=O)NOCCO)cc21 [Selumetinib] + CCNC(=O)c1noc(-c2cc(C(C)C)c(O)cc2O)c1-c1ccc(CN2CCOCC2)cc1 [Luminespib] (partner 0.01 µM)
Procedure, shortened: as §1

Selumetinib + AZD7762 = compound: Cn1cnc2c(F)c(Nc3ccc(Br)cc3Cl)c(C(=O)NOCCO)cc21 [Selumetinib] + NC(=O)Nc1cc(-c2cccc(F)c2)sc1C(=O)N[C@H]1CCCNC1 [AZD7762] (partner 0.2 µM)
Procedure, shortened: as §1

| Cell Line | relative viability (Venetoclax + OSI-027; first compound 0.01 µM) | relative viability (Venetoclax + OSI-027; first compound 0.03162 µM) | relative viability (Venetoclax + OSI-027; first compound 0.1 µM) | relative viability (Venetoclax + OSI-027; first compound 0.3162 µM) | relative viability (Venetoclax + OSI-027; first compound 1 µM) | relative viability (Selumetinib + Lapatinib; first compound 0.02 µM) | relative viability (Selumetinib + Lapatinib; first compound 0.06325 µM) | relative viability (Selumetinib + Lapatinib; first compound 0.2 µM) | relative viability (Selumetinib + Lapatinib; first compound 0.6325 µM) | relative viability (Selumetinib + Luminespib; first compound 0.02 µM) | relative viability (Selumetinib + Luminespib; first compound 0.06325 µM) | relative viability (Selumetinib + Luminespib; first compound 0.2 µM) | relative viability (Selumetinib + Luminespib; first compound 0.6325 µM) | relative viability (Selumetinib + AZD7762; first compound 0.02 µM) | relative viability (Selumetinib + AZD7762; first compound 0.06325 µM) | relative viability (Selumetinib + AZD7762; first compound 0.2 µM) | relative viability (Selumetinib + AZD7762; first compound 0.6325 µM) |
| --- | --- | --- | --- | --- | --- | --- | --- | --- | --- | --- | --- | --- | --- | --- | --- | --- | --- |
| NCI-H650 | 0.533 | 0.552 | 0.561 | 0.528 | 0.459 | 1.12 | 1.24 | 1.34 | 1.37 | 0.836 | 0.677 | 0.73 | 0.651 | 1.37 | 1.14 | 1.06 | 1.15 |
| A-427 | 0.449 | 0.572 | 0.434 | 0.487 | 0.46 | 0.98 | 0.914 | 1.09 | 1.1 | 0.901 | 0.986 | 0.953 | 0.874 | 0.7 | 0.613 | 0.628 | 0.618 |
| EMC-BAC-2 | 0.405 | 0.441 | 0.371 | 0.403 | 0.353 | 0.955 | 0.898 | 0.905 | 0.862 | 1.19 | 1.18 | 1.1 | 1.12 | 1.16 | 1.11 | 0.913 | 1.08 |
| NCI-H520 | 0.262 | 0.287 | 0.209 | 0.253 | 0.217 | 0.894 | 0.799 | 0.86 | 0.883 | 0.226 | 0.215 | 0.213 | 0.238 | – | – | – | – |
| LOU-NH91 | 0.674 | 0.762 | 0.726 | 0.755 | 0.673 | 0.759 | 0.707 | 0.758 | 0.766 | 0.381 | 0.302 | 0.329 | 0.359 | 0.754 | 0.758 | 0.696 | 0.733 |
| HOP-62 | 0.879 | 0.861 | 0.842 | 0.838 | 0.78 | 1.08 | 0.86 | 0.732 | 0.636 | 0.862 | 0.754 | 0.656 | 0.384 | 0.591 | 0.542 | 0.5 | 0.241 |
| NCI-H1563 | 0.836 | 0.776 | 0.747 | 0.773 | 0.707 | 0.891 | 0.851 | 0.944 | 0.911 | 0.507 | 0.499 | 0.527 | 0.52 | – | – | – | – |
| NCI-H1792 | 0.695 | 0.751 | 0.603 | 0.638 | 0.721 | 0.881 | 0.79 | 0.683 | 0.629 | 0.387 | 0.408 | 0.379 | 0.313 | 0.571 | 0.447 | 0.417 | 0.393 |
| HCC-15 | 0.653 | 0.67 | 0.721 | 0.658 | 0.549 | 0.786 | 0.575 | 0.463 | 0.398 | 0.199 | 0.19 | 0.158 | 0.0809 | 0.996 | 0.808 | 1.01 | 0.631 |
| HCC-366 | 0.873 | 0.958 | 0.628 | 0.95 | 0.573 | 1.06 | 0.914 | 0.872 | 0.612 | – | – | – | – | 0.27 | 0.324 | 0.253 | 0.166 |
| LU99A | 0.288 | 0.321 | 0.316 | 0.338 | 0.295 | 1.05 | 1 | 1.02 | 0.963 | 0.246 | 0.259 | 0.202 | 0.201 | 0.461 | 0.367 | 0.397 | 0.342 |
| SW 1573 | 0.573 | 0.658 | 0.585 | 0.506 | 0.529 | 1.19 | 1.01 | 1.04 | 0.788 | 0.207 | 0.168 | 0.214 | 0.228 | – | – | – | – |
| NCI-H1703 | – | – | – | – | – | 1.19 | 1.17 | 1.17 | 0.994 | – | – | – | – | 0.157 | 0.119 | – | 0.134 |
| NCI-H2170 | 0.597 | 0.802 | 0.552 | 0.713 | 0.633 | 0.265 | 0.267 | 0.274 | 0.247 | 0.358 | 0.845 | 0.651 | 0.617 | 0.874 | 0.88 | 0.711 | 0.838 |
| NCI-H2087 | 0.534 | 0.735 | 0.456 | 0.539 | 0.435 | 0.86 | 0.87 | 0.56 | 0.441 | 0.167 | 0.193 | 0.148 | 0.147 | 1.1 | 0.993 | 1.16 | 0.525 |
| LCLC-103H | 0.5 | 0.492 | 0.502 | 0.404 | 0.404 | – | – | – | – | 0.922 | 0.876 | 0.831 | 0.697 | 0.722 | 0.761 | 0.749 | 0.64 |
| NCI-H1755 | 0.73 | 0.74 | 0.68 | 0.757 | 0.667 | 0.971 | 0.953 | 0.91 | 0.998 | 0.715 | 0.531 | 0.495 | 0.368 | 0.522 | 0.352 | 0.393 | 0.451 |
